Assay results published in US20080027088A1, “Imidazole-Based Hmg-Coa Reductase Inhibitors” (Warner-Lambert Company, LLC, priority 2004, published 2008).

Key:
[1] = tested on: ApoE KO mice fed a Western diet; assay: Plasma lipoprotein cholesterol distribution by FPLC, 4 weeks; assay type: in vivo; conditions: doses 0.1-1.0 mg/kg/day
Method: Animal experiments—Male C57BI/6J and ApoE KO mice on C57BI/6J background were obtained from the Jackson Laboratory (Bar Harbor, Me.) or Taconic (Germantown, N.Y.) (Plaque formation in ApoE KO mice is lipid-driven (A. S. Plump et al., Cell. 1992;71 (2):343-53)). Myriocin was mixed with Western diet containing 0.21% cholesterol and 21% fat. 8-12-week-old mice received 0.3 mg myriocin/kg/day for 12 weeks (Table 1). 10-12 week-old ApoE KO mice (n=8) were pre-fed a western diet for 2 weeks and mice received various concentrations of myriocin for 4 weeks in diet admix. Control groups consisted of ApoE KO mice fed normal chow or Western diet without myriocin, and normal chow-fed C57BI/6J mice. Body weight and chow feeding was measured every week to examine the food consumption. For the femoral artery cuff model, 8-10 week-old male ApoE KO mice were anethetized and the right femoral artery was dissected from its surroundings. A nonconstrictive polyethylene cuff (Portex, 0.40-mm inner diameter, 0.80-mm outer diameter, and 1.5-mm length) was placed looselyaround the right femoral artery.
Plasma lipids and serum amyloid A measurement—Mice were sacrificed by CO2 inhalation and blood was collected through cardiac puncture. Plasma concentrations of total cholesterol and triglyceride were determined enzymatically on a Cobas Mira Plus auto-analyzer using Cholesterol R1 and Triglycerides Reagent methods, respectively (Roche Diagnostics, Indiana, USA). Colormetric changes were measured at 500 nm. Lipoproteins were separated from mouse plasma by fast-protein liquid chromatography utilizing a Superose 6HR column. Cholesterol distribution among lipoproteins was determined by in-line post column analysis (K. A. Kieft, T. M. Bocan and B. R. Krause, J. Lipid Res. 1991; 32:859-66). Serum Amyloid A (SAA) protein in plasma was measured by ELISA according to the manufacturer's instructions (Biosource).
FIG. 2. […] Cholesterol distribution among lipoproteins was determined by in-line post column analysis (Kieft, K. A., T. M. A. Bocan, B. R. Krause, J. Lipid Res. 1991, 32: 859-866). […]

[2] = tested on: ApoE KO mice fed a Western diet; assay: Sphinganine in liver and aorta by LC/MS, 12 weeks; assay type: in vivo; conditions: 0.3 mg/kg/day
Description: Analysis of Sphingolipids and Phospholipids by LC/MS and HPLC-Total lipids were extracted by the modified method of Bligh-Dyer extraction (E. G. Bligh and W. J. Dyer, Can. J. Med. Sci. 1959;37:911-917; and D. K. Perry, A. Bielawska and Y. A. Hannun, Methods Enzymol. 2000;312:22-31). A Micromass (Waters Corp., Milford, Mass.) Quattro Ultima tandem quadrupole mass spectrometer with a standard Z-sprayTM ion source, set to electrospray positive ionization mode, with MassLynxTM version 3.5 operating software, was used for all quantitative determinations. Source conditions were typically as follows: capillary 3.5 kV, source temperature 110 degrees C., and desolvation temperature 325 degrees C. Multipliers were set to 650 V, and the dwell time for each analyte was 100 milliseconds. […] The following ion transitions were used for quantification: sphingomyelin (704→184 m/z), sphinganine (302→284 m/z), ceramide (566→264 m/z) and psychosine (462→282 m/z) as an internal standard. […] For the quantitative method, the analytical column was a Phenomenex (Torrance, Calif.) Polar-RP (2.0×150 mm, 4 μm) with a […] […] Lipid extracts were analyzed by HPLC and evaporative light scattering detector to determine plasma sphingomyelin and phosphatidylcholine (PC) levels (R. Homan and M.K. Anderson, J. Chromatogr. B. Biomed. Sci. Appl. 1998;708:21-6). […] Sphinganine levels in liver (A) and aorta (B) were determined by LC/MS. […]

CCCCCCC(=O)CCCCCC/C=C/C[C@@H](O)[C@H](O)[C@@](N)(CO)C(=O)O [myriocin]
HDL-cholesterol raised [1]: 2.1 fold | LDL-cholesterol lowered, at maximum [1]: 63% | VLDL-cholesterol lowered, at maximum [1]: 83% | sphinganine levels in the liver lowered ([2]; vs Western diet-fed ApoE KO mice): 42% | sphinganine levels in aorta lower ([2]; vs Western diet-fed group): 45%
